From ChEMBL document CHEMBL1649332, “Update on fusidic acid (CEM-102) tested against Neisseria gonorrhoeae and Chlamydia trachomatis” (Antimicrob Agents Chemother, 2010) come the findings set out here.

SMILES strings stand for the structures. Values after ≈ are worked out from the molar mass of the structure shown. Active and inactive are the calls of the source.

Series [1] deals with Neisseria gonorrhoeae. The series is described as follows: Antimicrobial activity against Neisseria gonorrhoeae assessed as susceptible isolates by EUCAST method. The format is functional.
The test system of series [2] is Chlamydia trachomatis. The series is described as follows: Antimicrobial activity against Chlamydia trachomatis isolates. The conditions noted are these: for MBC / MIC90: Chlamydia trachomatis. It counts as functional.
For series [3], the system named is Neisseria gonorrhoeae. The series is described as follows: Antimicrobial activity against Neisseria gonorrhoeae assessed as resistant isolates by EUCAST method. The format is functional.
Series [4] has as its system Neisseria gonorrhoeae. The series is described as follows: Antimicrobial activity against Neisseria gonorrhoeae isolates by CLSI agar dilution method. It counts as functional. On the technique in general: In agar dilution the substance is mixed into plates at graded concentrations.
The test system of series [5] is Neisseria gonorrhoeae. Description: Antimicrobial activity against Neisseria gonorrhoeae assessed as susceptible isolates by CLSI method. The format is functional.
In series [6] the test system is Plasma. The series is described as follows: Trough plasma concentration in human. It counts as ADME, cell-free.
Series [7] deals with Neisseria gonorrhoeae. The series is described as follows: Antimicrobial activity against Neisseria gonorrhoeae isolates up to 2 ug/ml by CLSI agar dilution method. The format is functional, organism-based.
Series [8] has as its system Neisseria gonorrhoeae. Description: Antimicrobial activity against Neisseria gonorrhoeae assessed as resistant isolates by CLSI method. The format is functional.

On to `CC[C@H]1OC(=O)[C@H](C)[C@@H](O[C@H]2C[C@@](C)(OC)[C@@H](O)[C@H](C)O2)[C@H](C)[C@@H](O[C@@H]2O[C@H](C)C[C@H](N(C)C)[C@H]2O)[C@](C)(O)C[C@@H](C)CN(C)[C@H](C)[C@@H](O)[C@]1(C)O` [AZITHROMYCIN], for which, in series [1], the Activity turned out to be 80%. In addition, in series [2], the MBC90 stood at 0.12 µg/mL (≈ 0.16 µM); the minimal bactericidal concentration (MBC) (usually the smallest concentration meeting the test's criterion for killing) is 0.015 µg/mL (≈ 0.02 µM); the MIC90 (commonly an inhibitory concentration at the 90% level, which refers to growth in some studies and to a panel of isolates in others) came out at 0.12 µg/mL (≈ 0.16 µM). The Activity in series [3] was found to be 5.7%. In addition, the MIC50 (in general, an inhibitory concentration at the 50% level, which refers to growth in some studies and to a panel of isolates in others) in series [4] is 0.25 µg/mL (≈ 0.334 µM).

For `CO/N=C(\C(=O)N[C@@H]1C(=O)N2C(C(=O)O)=C(CSc3nc(=O)c(O)nn3C)CS[C@H]12)c1csc(N)n1` [CEFTRIAXONE], the Activity in series [1] was found to be 100%; in series [3], 0%; in series [5], 100%.

In series [2], `CC[C@H]1OC(=O)[C@H](C)[C@@H](O[C@H]2C[C@@](C)(OC)[C@@H](O)[C@H](C)O2)[C@H](C)[C@@H](O[C@@H]2O[C@H](C)C[C@H](N(C)C)[C@H]2O)[C@](C)(OC)C[C@@H](C)C(=O)[C@H](C)[C@@H](O)[C@]1(C)O` [CLARITHROMYCIN] registered an MBC90 of 0.06 µg/mL (≈ 0.0802 µM), an MBC of 0.015 µg/mL (≈ 0.0201 µM) and an MIC90 of 0.06 µg/mL (≈ 0.0802 µM).

Take `C[C@H]1c2cccc(O)c2C(=O)C2=C(O)[C@]3(O)C(=O)C(C(N)=O)=C(O)[C@@H](N(C)C)[C@@H]3[C@@H](O)[C@@H]21.O` [DOXYCYCLINE]: in series [2], the MBC90 was determined as 0.06 µg/mL, the MBC turned out to be 0.015 µg/mL and the MIC90 amounted to 0.06 µg/mL.

`CC(=O)O[C@H]1C[C@@]2(C)[C@@H](C[C@@H](O)[C@H]3[C@@]4(C)CC[C@@H](O)[C@@H](C)[C@@H]4CC[C@@]32C)/C1=C(\CCC=C(C)C)C(=O)O` [FUSIDIC ACID] yielded a Cmin in series [6] of 80 µg/mL. In series [2], this compound yielded an MBC90 of 0.5 µg/mL (≈ 0.968 µM), a minimal bactericidal concentration (MBC) of 0.12 µg/mL (≈ 0.232 µM) and an MIC90 of 0.5 µg/mL (≈ 0.968 µM). In series [4], this compound gave an MIC50 of 0.5 µg/mL (≈ 0.968 µM) and an MIC90 of 1 µg/mL (≈ 1.94 µM). Moreover, the result in series [7] was Active.

As to `CC1(C)S[C@@H]2[C@H](NC(=O)Cc3ccccc3)C(=O)N2[C@H]1C(=O)O` [PENICILLIN G], the Activity in series [1] is on record as 22.9%; in series [3] it was 45.7%; in series [5] it was 22.9%; in series [8] it was 45.7%. In series [4], this compound returned an MIC50 of 1 µg/mL (≈ 2.99 µM).

In series [2], `CC[C@H]1OC(=O)[C@H](C)C(=O)[C@H](C)[C@@H](O[C@@H]2O[C@H](C)C[C@H](N(C)C)[C@H]2O)[C@](C)(OC)C[C@@H](C)C(=O)[C@H](C)[C@H]2N(CCCCn3cnc(-c4cccnc4)c3)C(=O)O[C@]12C` [TELITHROMYCIN] registered an MBC90 of 0.06 µg/mL (≈ 0.0739 µM), an MBC of 0.015 µg/mL (≈ 0.0185 µM) and an MIC90 of 0.06 µg/mL (≈ 0.0739 µM).

As to `CN(C)[C@@H]1C(O)=C(C(N)=O)C(=O)[C@@]2(O)C(O)=C3C(=O)c4c(O)cccc4[C@@](C)(O)[C@H]3C[C@@H]12` [TETRACYCLINE], the Activity was found to be 45.7% in series [1], 34.3% in series [3], 22.9% in series [5] and 34.3% in series [8]. Also, the MIC50 in series [4] worked out at 1 µg/mL (≈ 2.25 µM).
